# Like-named read-outs stand apart in the source and are kept apart here.
# Experiments:
# KPC-2 = target: T1, KPC-2 (Klebsiella pneumoniae, UniProt Q9F663); experiment: β-Lactamase inhibitory activity, nitrocefin hydrolysis; format: biochemical; settings: class (A); 30 min pre-incubation
# T1 construct: made in house; host or cells: E. coli
# TEM-1 = target: T2, TEM-1 (Escherichia coli, UniProt P62593); experiment: as above; format: biochemical; settings: class (A); 30 min pre-incubation
# T2 construct: made in house; host or cells: E. coli
# OXA-1 = target: T3, OXA-1 (Escherichia coli, UniProt P13661); experiment: as above; format: biochemical; settings: class (D); 30 min pre-incubation
# T3 construct: made in house; host or cells: E. coli
# CTX-M-15 = target: T4, CTX-M-15 (Escherichia coli, UniProt Q9EXV5); experiment: as above; format: biochemical; settings: class (A); 30 min pre-incubation
# T4 construct: made in house; host or cells: E. coli
# OXA-15 = target: T5, OXA-15 (Pseudomonas aeruginosa, UniProt Q51574); experiment: as above; format: biochemical
# T5 construct: made in house; host or cells: E. coli
# OXA-48 = target: T6, OXA-48 (Klebsiella pneumoniae, UniProt Q6XEC0); experiment: as above; format: biochemical; settings: class (D); 30 min pre-incubation
# T6 construct: made in house; host or cells: E. coli
# [1] = target: CMY-37 (Citrobacter freundii); experiment: as above; format: biochemical
# OXA-11 = target: T7, OXA-11 (Pseudomonas aeruginosa, UniProt Q06778); experiment: as above; format: biochemical
# T7 construct: made in house; host or cells: E. coli
# SHV-1 = target: T8, SHV-1 (Klebsiella pneumoniae, UniProt P0AD64); experiment: as above; format: biochemical
# T8 construct: made in house; host or cells: E. coli
# E. coli = experiment: MIC of compounds alone, broth microdilution; format: cell-based; settings: Escherichia coli, ECO 190317, beta-lactamases TEM-1, SHV-12, CTX-M-15 OXA-1, read-out: MIC
# Protocol: (§1) Method 2: MIC of Compounds and Synergy with Ceftazidime Against Bacterial Isolates (Table 2 and 3)
# (§2) Compounds of the present invention were assessed against genotyped bacterial strains alone or in combination with the β-lactam ceftazidime. In the assays, MICs of said compounds, or of ceftazidime at fixed concentrations of said compounds were determined by the broth microdilution method according to the Clinical Laboratory Standards Institute (CLSI—M7-A7). Briefly, compounds alone according to the invention were prepared in DMSO and spotted (2 μL each) on sterile polystyrene plates (Corning, 3788). Compounds and ceftazidime dilutions were prepared in DMSO and spotted (1 μL each) on sterile polystyrene plates (Corning, 3788). Log phase bacterial suspensions were adjusted to a final density of 5×10^5 cfu/mL in cation-adjusted Mueller-Hinton broth (Beckton-Dickinson) and added to each well (98 μL). Microplates were incubated for 16-20 h at 35° C. in ambient air. The MIC of the compounds was defined as the lowest concentration of said compounds that prevented bacterial growth as read by visual inspection. The MIC of ceftazidime at each compound concentration was defined as the lowest concentration of ceftazidime that prevented bacterial growth as read by visual inspection.
# AmpC (PAE) = AmpC (PAE) (Pseudomonas aeruginosa, UniProt P24735); experiment: biochemical
# Protocol: (§3) Method 1: β-Lactamase Inhibitory Activity, Determination of IC50 (Table 1)
# (§4) Enzyme activity was monitored by spectrophotometric measurement of nitrocefin (NCF-TOKU-E, N005) hydrolysis at 485 nm, at room temperature and in assay buffer A: 100 mM Phosphate pH7, 2% glycerol and 0.1 mg/mL Bovine serum albumin (Sigma, B4287). Enzymes were cloned in E. coli expression vector, expressed and purified in house using classical procedures. To a transparent polystyrene plate (Corning, 3628) were added in each well 5 μL DMSO or inhibitor dilutions in DMSO and 80 μL enzyme in buffer A. Plates were immediately read at 485 nm in a microplate spectrophotometer (BioTek, PowerWave HT) to enable background subtraction. After 30 min of pre-incubation at room temperature, 15 μL of NCF (200 μM final) were finally added in each well. Final enzyme concentrations were 0.1 nM (TEM-1), 0.075 nM (SHV-1), 0.4 nM (CTX-M-15), 1 nM (KPC-2), 0.2 nM (P99 AmpC), 0.2 nM (CMY-37), 0.4 nM (AmpC P. aeruginosa), 0.2 nM (OXA-1), 1.2 nM (OXA-11), 0.4 nM (OXA-15) and 0.3 nM (OXA-48). After 20 min incubation at room temperature, plates were once again read at 485 nm. Enzyme activity was obtained by subtracting the final signal by the background, and was converted to enzyme inhibition using non inhibited wells. IC50 curves were fitted to a classical Langmuir equilibrium model with Hill slope using XLFIT (IDBS).
# AmpC (P99) = AmpC (P99) (Enterobacter cloacae, UniProt P05364); experiment: biochemical
# Protocol: as §3, §4
# K. pneumoniae [2] = experiment: Synergy with ceftazidime: MIC of ceftazidime at fixed concentration of compound; format: cell-based; settings: Klebsiella pneumoniae, read-out: MIC of CAZ + compound (4 μg/mL), KPN 6299; beta-lactamases TEM-1, SHV-11 OXA-163
# Protocol: as §1, §2
# E. cloacae [3] = experiment: as above; format: cell-based; settings: Enterobacter cloacae, ECL P99; beta-lactamases AmpC; read-out: MIC of CAZ + compound (4 μg/mL)
# Protocol: as §1, §2
# K. pneumoniae [4] = experiment: MIC of compounds alone, broth microdilution; format: cell-based; settings: Klebsiella pneumoniae, alone; KPN 6299; beta-lactamases TEM-1, SHV-11 OXA-163; read-out: MIC
# Protocol: as §1, §2
# E. cloacae [5] = experiment: MIC of compounds alone, broth microdilution; format: cell-based; settings: Enterobacter cloacae, ECL P99, beta-lactamases AmpC, read-out: MIC
# Protocol: as §1, §2
Structure (SMILES),IC50 (KPC-2),IC50 (TEM-1),IC50 (OXA-1),IC50 (CTX-M-15),IC50 (OXA-15),IC50 (OXA-48),IC50 [1],IC50 (OXA-11),IC50 (SHV-1),MIC (E. coli),IC50 (AmpC (PAE)),IC50 (AmpC (P99)),MIC (K. pneumoniae [2]),MIC (E. cloacae [3]),"IC50 ([1]; class (C), 30 min pre-incubation, read-out: IC50 β-lactamase CMY-37)",MIC (K. pneumoniae [4]),MIC (E. cloacae [5])
"O=C(O)C(F)(F)F.O=C1N2C[C@H](c3scnc3[C@H]2c2nnc[nH]2)N1OS(=O)(=O)[O-].[Na+] (relative stereo) [Example 3, Sodium and 2,2,2-trifluoroacetate [trans-7-(4H-1,2,4-triazol-4-ium-3-yl)-9-oxo-3-thia-5,8,10-triaza-tricyclo[6.2.1.0^2,6]undeca-2(6),4-dien-10-yl]sulfate]",460 nM,46 nM,1000 nM,28 nM,1100 nM,6.8 nM,30 nM,190 nM,140 nM,16 µg/mL,570 nM,13 nM,,,,,
"O=C1N2C[C@H](c3scnc3[C@H]2c2ncno2)N1OS(=O)(=O)[O-].[Na+] (relative stereo) [Example 4, Sodium [trans-7-(1,2,4-oxadiazol-5-yl)-9-oxo-3-thia-5,8,10-triaza-tricyclo[6.2.1.0^2,6]undeca-2(6),4-dien-10-yl]sulfate]",3.2 nM,1.1 nM,170 nM,0.64 nM,19 nM,0.34 nM,,6.5 nM,1.4 nM,16 µg/mL,64 nM,1.1 nM,2 µg/mL,2 µg/mL,3.4 nM,> 32 µg/mL,32 µg/mL

# Source: US10842779B2, “Heterocyclic compounds and their use in preventing or treating bacterial infections” (priority 2015, dated 2020)
